Earlier results, collected in patent US20130210031A1 (priority 2010, published 2013).

Biological target: EF (Bacillus anthracis, UniProt P40136)
Sequence (P40136 whole entry, looked up): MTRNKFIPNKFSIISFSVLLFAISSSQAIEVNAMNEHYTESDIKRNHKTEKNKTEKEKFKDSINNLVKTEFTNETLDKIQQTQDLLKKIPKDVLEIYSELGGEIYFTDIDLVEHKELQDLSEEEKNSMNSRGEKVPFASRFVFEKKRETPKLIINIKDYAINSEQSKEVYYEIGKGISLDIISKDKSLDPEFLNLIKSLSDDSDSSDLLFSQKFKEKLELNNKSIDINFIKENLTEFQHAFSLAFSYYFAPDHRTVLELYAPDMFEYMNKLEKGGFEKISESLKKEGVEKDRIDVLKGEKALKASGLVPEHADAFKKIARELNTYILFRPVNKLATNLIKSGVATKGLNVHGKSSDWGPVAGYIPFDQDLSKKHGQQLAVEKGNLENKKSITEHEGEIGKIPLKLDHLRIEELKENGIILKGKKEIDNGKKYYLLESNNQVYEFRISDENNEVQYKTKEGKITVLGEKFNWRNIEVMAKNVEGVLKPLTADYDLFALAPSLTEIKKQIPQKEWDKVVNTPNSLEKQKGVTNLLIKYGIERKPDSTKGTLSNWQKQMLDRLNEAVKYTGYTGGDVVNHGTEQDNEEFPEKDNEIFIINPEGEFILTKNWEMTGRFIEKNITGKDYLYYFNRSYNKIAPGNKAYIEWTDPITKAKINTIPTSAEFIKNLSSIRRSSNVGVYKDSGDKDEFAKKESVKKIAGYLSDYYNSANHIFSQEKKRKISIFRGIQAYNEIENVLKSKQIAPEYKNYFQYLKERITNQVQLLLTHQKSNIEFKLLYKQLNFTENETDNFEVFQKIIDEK

Compound: CC(C)(C)C(=O)OCOP(=O)(COCCn1cnc2c(N)ncnc21)OCOC(=O)C(C)(C)C [adefovir dipivoxil]
- EF inhibitor potency: potent EF inhibitor
